Structures are written as SMILES. Bounds are passed on as bounds.

In one assay the target is T1, human MR (Homo sapiens, UniProt P08235).
T1 construct: The full length human MR gene is cloned from a human kidney or human brain cDNA library; His tag from the pAcHLT vector (own knowledge); made in house; host or cells: Sf9 insect cells (baculovirus, pAcHLT transfer vector)
T1 sequence (P08235 1-984): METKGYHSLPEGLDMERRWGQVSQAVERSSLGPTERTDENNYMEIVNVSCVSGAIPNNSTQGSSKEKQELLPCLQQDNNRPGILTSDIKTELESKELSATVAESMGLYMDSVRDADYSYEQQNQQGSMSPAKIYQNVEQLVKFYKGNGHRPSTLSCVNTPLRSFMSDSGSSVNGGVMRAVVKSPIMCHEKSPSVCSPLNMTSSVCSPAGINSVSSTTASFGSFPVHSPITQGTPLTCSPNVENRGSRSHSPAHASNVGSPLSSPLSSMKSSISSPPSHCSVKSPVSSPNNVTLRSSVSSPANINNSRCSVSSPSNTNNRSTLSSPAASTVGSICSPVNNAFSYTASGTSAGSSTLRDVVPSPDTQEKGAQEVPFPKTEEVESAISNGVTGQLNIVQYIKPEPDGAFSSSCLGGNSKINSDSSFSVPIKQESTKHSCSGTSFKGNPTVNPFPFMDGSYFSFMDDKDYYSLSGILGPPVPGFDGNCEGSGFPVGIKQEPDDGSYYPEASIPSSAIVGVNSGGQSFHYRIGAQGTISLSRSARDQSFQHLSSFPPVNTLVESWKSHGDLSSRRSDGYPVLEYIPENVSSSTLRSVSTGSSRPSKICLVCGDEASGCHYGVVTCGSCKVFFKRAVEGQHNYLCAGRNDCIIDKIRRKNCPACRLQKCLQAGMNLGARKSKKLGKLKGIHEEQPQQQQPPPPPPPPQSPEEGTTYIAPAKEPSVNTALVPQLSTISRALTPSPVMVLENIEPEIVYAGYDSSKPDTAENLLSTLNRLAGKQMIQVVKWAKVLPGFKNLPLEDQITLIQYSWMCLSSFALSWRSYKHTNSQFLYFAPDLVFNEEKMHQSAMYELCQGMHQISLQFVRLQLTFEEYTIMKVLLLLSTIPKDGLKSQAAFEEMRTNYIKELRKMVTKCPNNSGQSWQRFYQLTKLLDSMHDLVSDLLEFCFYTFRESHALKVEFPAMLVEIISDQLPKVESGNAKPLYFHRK
The assay can be described thus: Mineralocorticoid Receptor Binding Assay ([3H]-aldosterone). As to conditions: [3H]-aldosterone binding, human MR expressed in Sf9 cells; read-out: MR Ki. In short, it runs like this: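 Receptor source: freeze-thaw lysate of baculovirus-infected Sf9 cells carrying full-length human MR, 20-25 μg protein. Incubation ~16 h at 4 °C with shaking, pH 7.5 buffer containing 30 mM sodium molybdate and 10% glycerol.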

A further assay concerns the target T2, glucocorticoid receptor (Homo sapiens, UniProt P04150).
T2 construct: containing 50-200 ug of A549 cell extract and 1.86 nM [^3H]-dexamethasone; host or cells: A549 human lung epithelial cells (sonicated cell extract)
T2 sequence (P04150 1-777): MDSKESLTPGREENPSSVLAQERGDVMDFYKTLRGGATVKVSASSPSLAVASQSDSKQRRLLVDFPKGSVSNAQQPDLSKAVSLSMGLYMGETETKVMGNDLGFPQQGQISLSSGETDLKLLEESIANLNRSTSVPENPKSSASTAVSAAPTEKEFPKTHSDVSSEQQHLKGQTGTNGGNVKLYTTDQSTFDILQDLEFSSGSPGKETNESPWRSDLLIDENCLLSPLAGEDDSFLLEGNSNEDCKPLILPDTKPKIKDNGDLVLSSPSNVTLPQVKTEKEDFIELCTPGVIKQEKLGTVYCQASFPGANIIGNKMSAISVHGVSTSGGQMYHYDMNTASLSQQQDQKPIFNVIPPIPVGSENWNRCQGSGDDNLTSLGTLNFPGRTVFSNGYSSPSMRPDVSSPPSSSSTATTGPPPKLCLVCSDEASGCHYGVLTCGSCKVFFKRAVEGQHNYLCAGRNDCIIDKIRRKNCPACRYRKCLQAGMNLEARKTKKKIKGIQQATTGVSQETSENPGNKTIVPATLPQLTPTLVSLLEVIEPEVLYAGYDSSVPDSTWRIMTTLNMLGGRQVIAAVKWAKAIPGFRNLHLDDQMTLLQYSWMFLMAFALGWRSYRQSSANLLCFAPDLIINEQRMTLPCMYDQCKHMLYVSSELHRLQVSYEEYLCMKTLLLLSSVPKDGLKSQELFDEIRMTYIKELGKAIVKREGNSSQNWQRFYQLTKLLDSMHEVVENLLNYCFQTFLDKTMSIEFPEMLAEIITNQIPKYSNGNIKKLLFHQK
In words: Glucocorticoid Receptor Binding Assay ([3H]-dexamethasone, A549 cell extract). Conditions: [3H]-dexamethasone binding, read-out: GR Ki. Summed up: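 Displacement of [3H]-dexamethasone (1.86 nM) from glucocorticoid receptor in sonicated A549 lung epithelial cell extracts, 16 h at 4 °C, pH 7.2 molybdate-containing buffer. Bound radioactivity was scintillation-counted after charcoal/dextran stripping of free ligand.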

Consider `O=c1[nH]c2cc(/C=C3/c4ccccc4CCc4c(Cl)cccc43)ccc2o1` [Example 221(a)], for which the Ki at human MR and at glucocorticoid receptor was below 500 nM throughout.
With `O=c1[nH]c2cc(/C=C3\c4ccccc4CCc4c(Cl)cccc43)ccc2o1` [Example 221(b)], the Ki on human MR and at glucocorticoid receptor was below 500 nM each time.
Regarding `O=c1[nH]c2cc(C=C3c4ccccc4CCc4cc(Cl)ccc43)ccc2o1` [Example 222(a), 5-(2-Chloro-10,11-dihydro-dibenzo[a,d]cyclohepten-5-ylidenemethyl)-3H-benzooxazol-2-one], the Ki at human MR and on glucocorticoid receptor was below 500 nM in each case.
For `O=c1[nH]c2ccc(C=C3c4ccccc4CCc4ccccc43)cc2[nH]1` [Example 223, 5-(10,11-Dihydro-dibenzo[a,d]cyclohepten-5-ylidenemethyl)-l,3-dihydro-benzoimidazol-2-one], the Ki at human MR is below 500 nM; on glucocorticoid receptor it was below 10000 nM.
In the same order, the values of `O=C1Cc2c(C=C3c4ccccc4CCc4ccccc43)cccc2N1` [Example 224, 4-(10,11-Dihydro-dibenzo[a,d]cyclohepten-5-ylidenemethyl)-1,3-dihydro-indol-2-one] are below 500 nM and below 500 nM.
Take `C(=C1c2ccccc2CCc2ccccc21)c1ccccc1-c1cnccn1` [Example 225, 2-[2-(10,11-Dihydro-dibenzo[a,d]cyclohepten-5-ylidenemethyl)-phenyl]-pyrazine]: the Ki at human MR was below 500 nM; at glucocorticoid receptor it was below 10000 nM.
The like results for `C(=C1c2ccccc2CCc2ccccc21)c1ccccc1-c1ccccn1` [Example 227, 2-[2-(10,11-Dihydro-dibenzo[a,d]cyclohepten-5-ylidenemethyl)-phenyl]-pyridine] were, in that order, below 500 nM and below 1000 nM.
As to `C(=C1c2ccccc2CCc2ccccc21)c1ccccc1-c1cccnc1` [Example 228, 3-[2-(10,11-Dihydro-dibenzo[a,d]cyclohepten-5-ylidenemethyl)-phenyl]-pyridine], the values for the Ki at human MR and on glucocorticoid receptor were below 500 nM and below 1000 nM, respectively.
In the same order, the values of `C(=C1c2ccccc2CCc2ccccc21)c1cccc(-c2ccn[nH]2)c1` [Example 229, 5-[3-(10,11-Dihydro-dibenzo[a,d]cyclohepten-5-ylidenemethyl)-phenyl]-1H-pyrazole] are below 500 nM and below 1000 nM.
Regarding `Nc1cccc(C=C2c3ccccc3CCc3ccccc32)n1` [Example 230, 6-(10,11-Dihydro-dibenzo[a,d]cyclohepten-5-ylidenemethyl)-pyridin-2-ylamine], the results for the Ki on human MR and at glucocorticoid receptor were below 1000 nM and below 10000 nM, respectively.
In the same order, the values of `CS(=O)(=O)Nc1cccc(C=C2c3ccccc3CCc3ccccc32)n1` [Example 231, N-[6-(10,11-Dihydro-dibenzo[a,d]cyclohepten-5-ylidenemethyl)-pyridin-2-yl]-methanesulfonamide] are below 500 nM and below 500 nM.
The like results for `CS(=O)(=O)Nc1cncc(C=C2c3ccccc3CCc3ccccc32)n1` [Example 233, N-[6-(10,11-Dihydro-dibenzo[a,d]cyclohepten-5-ylidenemethyl)-pyrazin-2-yl]-methanesulfonamide] were, in that order, below 500 nM and below 10000 nM.
The like results for `Oc1cncc(C=C2c3ccccc3CCc3ccccc32)c1` [Example 236, 5-(10,11-Dihydro-dibenzo[a,d]cyclohepten-5-ylidenemethyl)pyridin-3-ol] were, in that order, below 500 nM and below 500 nM.
Regarding `C(=C1c2ccccc2CCc2ccccc21)c1cn[nH]c1` [Example 237, 4-(10,11-Dihydro-dibenzo[a,d]cyclohepten-5-ylidenemethyl)-1H-pyrazole], the Ki is below 500 nM on human MR and below 10000 nM at glucocorticoid receptor.
With `CS(=O)(=O)Nc1cccc(/C=C2\c3ccccc3CCc3cccnc32)c1` [Example 249, (E)-N-[3-(5,6-Dihydro-benzo[5,6]cyclohepta[1,2-b]pyridin-11-ylidenemethyl)-phenyl]-methanesulfonamide], the Ki at human MR and on glucocorticoid receptor was below 500 nM each time.
For the compound `CS(=O)(=O)Nc1cccc(/C=C2/c3ccccc3CCc3ncccc32)c1` [Example 251, (Z)-N-[3-(10,11-Dihydro-benzo[4,5]cyclohepta[1,2-b]pyridin-5-ylidenemethyl)-phenyl]-methanesulfonamide], the Ki at human MR and on glucocorticoid receptor was below 500 nM throughout.
For `CS(=O)(=O)Nc1cccc(/C=C2\c3ccccc3CCc3ncccc32)c1` [Example 253, (E)-N-[3-(10,11-Dihydro-benzo[4,5]cyclohepta[1,2-b]pyridin-5-ylidenemethyl)-phenyl]-methanesulfonamide], the Ki at human MR and at glucocorticoid receptor was below 500 nM throughout.
With `Oc1cccc(/C=C2\c3ccccc3CCc3ncccc32)c1` [Example 254, (E)-3-(10,11-Dihydro-benzo[4,5]cyclohepta[1,2-b]pyridin-5-ylidenemethyl)-phenol], the Ki at human MR and on glucocorticoid receptor was below 500 nM each time.
As for `CS(=O)(=O)Nc1cccc(C=C2c3ccccc3C3C(c4ccccc42)C3(F)F)c1` (stereo not drawn) [Example 255, N-[3-(8,8-Difluoro-4-ylidinemethyl-2,3,5,6-dibenzobicyclo[5.1.0]octane)-phenyl]-methanesulfonamide], the inhibitory constant (Ki) at human MR and at glucocorticoid receptor was below 500 nM each time.
For `Oc1cccc(C=C2c3ccccc3C3C(c4ccccc42)C3(F)F)c1` (stereo not drawn) [Example 256], the Ki at human MR is below 500 nM; on glucocorticoid receptor, below 1000 nM.
In the same order, the values of `Oc1cccc(C=C2c3ccccc3C3CC3c3ccccc32)c1` (stereo not drawn) [Example 258] are below 500 nM and below 500 nM.
The like results for `CS(=O)(=O)Nc1cccc(/C=C2\c3ccccc3NC(=O)c3ccccc32)c1` [Example 261, N-[3-(6-Oxo-5,6-dihydro-dibenzo[b,e]azepin-11-ylidenemethyl)-phenyl]-methanesulfonamide] were, in that order, below 500 nM and below 500 nM.
The like results for `CS(=O)(=O)Nc1cccc(/C=C2\c3ccccc3CSc3ccccc32)c1` [Example 262, N-[3-(11H-10-Thia-dibenzo[a,d]cyclohepten-5-ylidenemethyl)-phenyl]-methanesulfonamide] were, in that order, below 500 nM and below 500 nM.
Consider `CS(=O)(=O)Nc1cccc(/C=C2\c3ccccc3C[S+]([O-])c3ccccc32)c1` (stereo not drawn) [Example 263, N-[3-(10-Oxo-10,11-dihydro-10λ^4-thia-dibenzo[a,d]cyclohepten-5-ylidenemethyl)-phenyl]-methanesulfonamide], for which the Ki was below 500 nM on human MR and below 1000 nM at glucocorticoid receptor.

The values above are taken from patent US20060063759A1, “Tricyclic steroid hormone nuclear receptor modulators” (priority 2002, published 2006).
